The record followed here is patent EP2140864A2 (H. Lundbeck A/S, priority 2001, dated 2002).

As a reminder, the Ki is a measure of affinity in units of concentration, obtained from inhibition or displacement.

T1 sequence (P28222 whole entry): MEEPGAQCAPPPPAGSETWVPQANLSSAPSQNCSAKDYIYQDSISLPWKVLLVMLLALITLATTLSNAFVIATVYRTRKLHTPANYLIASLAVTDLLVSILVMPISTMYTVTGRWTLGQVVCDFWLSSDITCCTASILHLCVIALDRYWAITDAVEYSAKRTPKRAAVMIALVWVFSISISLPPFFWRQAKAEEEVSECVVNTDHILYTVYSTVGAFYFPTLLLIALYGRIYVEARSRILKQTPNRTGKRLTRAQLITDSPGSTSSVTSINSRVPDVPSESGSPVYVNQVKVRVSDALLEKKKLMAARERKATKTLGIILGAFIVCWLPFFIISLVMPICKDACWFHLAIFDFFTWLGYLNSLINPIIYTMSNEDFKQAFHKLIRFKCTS
T5 sequence (P14416 whole entry): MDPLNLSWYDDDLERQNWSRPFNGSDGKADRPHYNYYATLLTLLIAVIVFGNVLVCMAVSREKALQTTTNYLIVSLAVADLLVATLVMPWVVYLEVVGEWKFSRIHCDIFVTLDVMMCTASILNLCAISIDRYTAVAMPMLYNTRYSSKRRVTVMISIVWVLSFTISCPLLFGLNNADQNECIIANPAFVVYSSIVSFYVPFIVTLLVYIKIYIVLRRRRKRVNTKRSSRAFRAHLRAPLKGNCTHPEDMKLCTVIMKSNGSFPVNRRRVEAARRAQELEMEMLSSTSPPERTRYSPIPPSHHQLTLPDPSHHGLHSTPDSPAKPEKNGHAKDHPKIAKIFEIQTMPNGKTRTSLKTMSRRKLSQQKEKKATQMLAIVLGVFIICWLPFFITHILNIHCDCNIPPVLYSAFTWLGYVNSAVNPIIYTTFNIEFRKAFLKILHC
T6 sequence (P19020 whole entry): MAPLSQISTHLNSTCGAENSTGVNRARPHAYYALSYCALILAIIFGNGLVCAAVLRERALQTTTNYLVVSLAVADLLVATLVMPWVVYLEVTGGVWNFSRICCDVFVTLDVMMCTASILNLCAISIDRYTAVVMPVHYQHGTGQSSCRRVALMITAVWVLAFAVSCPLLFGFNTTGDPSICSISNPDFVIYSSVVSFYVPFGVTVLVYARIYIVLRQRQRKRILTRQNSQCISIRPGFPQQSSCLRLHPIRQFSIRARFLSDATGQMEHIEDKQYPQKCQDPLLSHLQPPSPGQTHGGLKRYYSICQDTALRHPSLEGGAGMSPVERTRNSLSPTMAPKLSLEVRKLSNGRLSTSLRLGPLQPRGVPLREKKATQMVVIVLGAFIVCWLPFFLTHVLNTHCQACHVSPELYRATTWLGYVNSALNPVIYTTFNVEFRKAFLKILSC

One test concerns the target T1, human 5HT1B (Homo sapiens, UniProt P28222).
T1 construct: expressed in transfected cells
Briefly: Radioligand binding, 5HT1B receptor ([3H]-serotonin). The following applies: Table 7; read-out: h5HT1B Ki. Here is the method: Human 5HT1B, 5HT1D, 5HT1E, 5HT1F, and 5HT7 Receptors: The cell lysates of LM(tk-) clonal cell line stably transfected with the genes encoding each of these 5HT receptor-subtypes were prepared as described above. Cell membranes were suspended in 50mM Tris-HCl buffer (pH 7.4 at 37°C) containing 10 mM MgCl2, 0.2 mM EDTA, 10 µM pargyline, and 0.1% ascorbate. […] Nonspecific binding was determined in the presence of 10 µM serotonin. The bound radioligand was separated by filtration through GF/B filters using a cell harvester.
(§1) Binding data were analyzed using nonlinear regression and statistical techniques available in the GraphPAD Prism package (San Diego, CA). Enzymatic assay data were derived from a standard curve of reference compound data.
Regarding `CN(C)c1cc(Nc2ccc(Cl)c(Cl)c2)nc(Nc2ccccc2)n1` [Example 60], the Ki came out at 5.46 µM.

Take `COc1cccc(Nc2cc(N3CCCCC3)nc(N(C)CCc3c[nH]c4ccccc34)n2)c1` [Example 17]: the Ki was determined as 0.407 µM.

Staying with this test, now noted: Table 8; Ki h5HT1B divided by Ki hGAL3.
For `CN(C)c1cc(Nc2ccc(Cl)c(Cl)c2)nc(Nc2ccccc2)n1` [Example 60], the “selectivity ratio h5HT1B” value is above 30.

`COc1cccc(Nc2cc(N3CCCCC3)nc(N(C)CCc3c[nH]c4ccccc34)n2)c1` [Example 17]: the “selectivity ratio h5HT1B” value was 5.

A further test addresses T2, rat 5HT2C receptor (Rattus norvegicus, UniProt P08909).
T2 construct: expressed in transfected cells
T2 sequence (P08909 33-460): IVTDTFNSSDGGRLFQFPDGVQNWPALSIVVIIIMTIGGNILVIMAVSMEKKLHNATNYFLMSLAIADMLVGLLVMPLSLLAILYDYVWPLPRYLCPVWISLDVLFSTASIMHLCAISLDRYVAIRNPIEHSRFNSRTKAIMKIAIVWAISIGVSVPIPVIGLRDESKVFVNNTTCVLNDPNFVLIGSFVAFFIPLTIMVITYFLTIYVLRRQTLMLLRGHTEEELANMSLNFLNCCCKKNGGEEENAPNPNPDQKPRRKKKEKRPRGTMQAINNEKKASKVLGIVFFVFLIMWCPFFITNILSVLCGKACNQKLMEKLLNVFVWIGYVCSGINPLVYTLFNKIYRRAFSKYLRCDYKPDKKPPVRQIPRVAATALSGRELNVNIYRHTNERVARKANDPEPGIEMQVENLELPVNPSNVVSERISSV
Briefly: Radioligand binding, 5HT2C receptor. The following applies: Table 7; read-out: r5HT2C Ki. Here is the method:
Other 5-HT Receptors: Other serotonin receptor binding assays were performed according to published methods: rat 5HT2C receptor (Julius et al., 1988); and 5-HT6 (Monsma, et al., 1993). The binding assays using the 5-HT4 receptor were performed according to the procedures described in U.S. Patent No. 5,766,879, the disclosure of which is hereby incorporated by reference in its entirety into this application.
as §1
As for `CN(C)c1cc(Nc2ccc(Cl)c(Cl)c2)nc(Nc2ccccc2)n1` [Example 60], the Ki came out at 1.78 µM.

For the compound `COc1cccc(Nc2cc(N3CCCCC3)nc(N(C)CCc3c[nH]c4ccccc34)n2)c1` [Example 17], the Ki stood at 0.562 µM.

Still in this test, the particulars now being: Table 8; Ki r5HT2C divided by Ki hGAL3.
For the compound `CN(C)c1cc(Nc2ccc(Cl)c(Cl)c2)nc(Nc2ccccc2)n1` [Example 60], the “selectivity ratio r5HT2C” value is 21.

Take `COc1cccc(Nc2cc(N3CCCCC3)nc(N(C)CCc3c[nH]c4ccccc34)n2)c1` [Example 17]: the “selectivity ratio r5HT2C” value worked out at 6.

In another test the target is T3, Human 5HT2A Receptor (Homo sapiens, UniProt P28223).
T3 construct: expressed in transfected cells; host or cells: COS-7 cells (pCEXV-3 vector, DEAE-dextran)
T3 sequence (P28223 whole entry): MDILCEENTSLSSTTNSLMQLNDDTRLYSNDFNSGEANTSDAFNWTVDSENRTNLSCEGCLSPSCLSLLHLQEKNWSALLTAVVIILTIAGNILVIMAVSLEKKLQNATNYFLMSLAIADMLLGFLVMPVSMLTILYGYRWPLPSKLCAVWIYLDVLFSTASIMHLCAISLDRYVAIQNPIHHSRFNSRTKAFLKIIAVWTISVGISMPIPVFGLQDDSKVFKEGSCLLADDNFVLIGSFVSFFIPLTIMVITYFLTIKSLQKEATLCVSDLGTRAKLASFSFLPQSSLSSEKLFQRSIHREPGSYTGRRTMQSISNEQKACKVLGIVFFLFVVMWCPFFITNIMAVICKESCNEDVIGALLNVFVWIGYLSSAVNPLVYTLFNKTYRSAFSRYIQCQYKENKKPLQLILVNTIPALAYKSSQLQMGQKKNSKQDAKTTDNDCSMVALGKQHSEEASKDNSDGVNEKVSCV
Briefly: Radioligand binding, 5HT2A receptor ([3H]ketanserin). The settings on record: Table 7; read-out: h5HT2A Ki. Here is the method:
Human 5HT2A Receptor: The coding sequence of the human 5HT2A receptor was obtained from a human brain cortex cDNA library, and cloned into the cloning site of pCEXV-3 eukaryotic expression vector. This construct was transfected into COS-7 cells by the DEAE-dextran method (Cullen, 1987). Cells were harvested after 72 hours and lysed by sonication in 5 mM Tris-HCl, 5 mM EDTA, pH 7.5. The cell lysates were subjected to centrifugation at 1000 rpm for 5 minutes at 4°C, and the supernatant was subjected to centrifugation at 30,000 x g for 20 minutes at 4°C. The pellet was suspended in 50 mM Tris-HCl buffer (pH 7.7 at room temperature) containing 10 mM MgS04, 0.5 mM EDTA, and 0.1% ascorbate. The affinity of compounds at 5HT2A receptors were determined in equilibrium competition binding assays using [^3H]ketanserin (1 nM). Nonspecific binding was defined by the addition of 10 µM mianserin. The bound radioligand was separated by filtration through GF/B filters using a cell harvester.
as §1
Take `CN(C)c1cc(Nc2ccc(Cl)c(Cl)c2)nc(Nc2ccccc2)n1` [Example 60]: the Ki stood at 26.1 µM.

For `COc1cccc(Nc2cc(N3CCCCC3)nc(N(C)CCc3c[nH]c4ccccc34)n2)c1` [Example 17], the Ki came to 7.16 µM.

Staying with this test, now noted: Table 8; Ki h5HT2A divided by Ki hGAL3.
Regarding `CN(C)c1cc(Nc2ccc(Cl)c(Cl)c2)nc(Nc2ccccc2)n1` [Example 60], the “selectivity ratio h5HT2A” value was above 100.

Regarding `COc1cccc(Nc2cc(N3CCCCC3)nc(N(C)CCc3c[nH]c4ccccc34)n2)c1` [Example 17], the “selectivity ratio h5HT2A” value is reported as above 30.

A further test has as its target T4, human α1A adrenoceptor (Homo sapiens, UniProt P35348).
T4 construct: expressed in transfected cells
T4 sequence (P35348 1-466): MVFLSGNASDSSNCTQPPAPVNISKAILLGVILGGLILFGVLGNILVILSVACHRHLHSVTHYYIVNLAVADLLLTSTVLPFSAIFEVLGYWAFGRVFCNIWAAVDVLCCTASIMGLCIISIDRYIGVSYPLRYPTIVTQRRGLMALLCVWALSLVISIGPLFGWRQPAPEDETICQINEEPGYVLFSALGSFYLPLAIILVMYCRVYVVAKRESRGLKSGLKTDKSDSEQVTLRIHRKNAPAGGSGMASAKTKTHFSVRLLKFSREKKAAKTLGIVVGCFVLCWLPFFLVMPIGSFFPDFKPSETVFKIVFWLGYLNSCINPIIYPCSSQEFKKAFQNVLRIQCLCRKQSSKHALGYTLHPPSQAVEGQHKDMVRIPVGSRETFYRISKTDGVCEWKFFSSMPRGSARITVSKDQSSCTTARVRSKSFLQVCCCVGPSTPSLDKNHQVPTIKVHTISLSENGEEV
Description: Radioligand binding, α1A adrenergic receptor. The settings on record: Table 9; read-out: hα1A Ki.
Text: (§2) Other receptors: Cell membranes expressing human dopamine D1, D2, D4 and rat D3 receptors were purchased through BioSignal, Inc. (Montreal, Canada). Binding assays using the histamine H1 receptor; dopamine receptors; and α1A, α1E, and α2 adrenergic receptors may be carried out according to the procedures described in U.S. Patent No. 5,780,485, the disclosure of which is hereby incorporated by reference in its entirety into this application. Binding assays using the dopamine D5 receptor may be carried out according to the procedures described in U.S. Patent No. 5,882,855, the disclosure of which is hereby incorporated by reference in its entirety into this application. Binding assays for the human α1D adrenergic receptor may be carried out according to the procedures described in U.S. Patent No. 6,156,518, the disclosure of which is hereby incorporated by reference in its entirety into this application.
as §1
For `CN(C)c1cc(Nc2ccc(Cl)c(Cl)c2)nc(Nc2ccccc2)n1` [Example 60], the Ki is 13.6 µM.

As to `COc1cccc(Nc2cc(N3CCCCC3)nc(N(C)CCc3c[nH]c4ccccc34)n2)c1` [Example 17], the Ki came to 0.996 µM.

Staying with this test, now noted: Table 10; Ki hα1A divided by Ki hGAL3.
Consider `CN(C)c1cc(Nc2ccc(Cl)c(Cl)c2)nc(Nc2ccccc2)n1` [Example 60], for which the “selectivity ratio hα1A” value is given as above 100.

`COc1cccc(Nc2cc(N3CCCCC3)nc(N(C)CCc3c[nH]c4ccccc34)n2)c1` [Example 17]: the “selectivity ratio hα1A” value turned out to be 11.

A further test addresses T5, human dopamine D2 (Homo sapiens, UniProt P14416).
T5 construct: purchased BioSignal, Inc. (Montreal, Canada)
Briefly: Radioligand binding, dopamine D2 receptor. The following applies: Table 9; read-out: hD2 Ki.
Text: as §2, §1
In the case of `CN(C)c1cc(Nc2ccc(Cl)c(Cl)c2)nc(Nc2ccccc2)n1` [Example 60], the Ki is 26.8 µM.

For the compound `COc1cccc(Nc2cc(N3CCCCC3)nc(N(C)CCc3c[nH]c4ccccc34)n2)c1` [Example 17], the Ki stood at 1.81 µM.

Staying with this test, now noted: Table 10; Ki hD2 divided by Ki hGAL3.
In the case of `CN(C)c1cc(Nc2ccc(Cl)c(Cl)c2)nc(Nc2ccccc2)n1` [Example 60], the “selectivity ratio hD2” value is reported as above 100.

Regarding `COc1cccc(Nc2cc(N3CCCCC3)nc(N(C)CCc3c[nH]c4ccccc34)n2)c1` [Example 17], the “selectivity ratio hD2” value came out at 21.

Another test addresses T6, rat D3 receptors (Rattus norvegicus, UniProt P19020).
T6 construct: purchased BioSignal, Inc. (Montreal, Canada)
Briefly: Radioligand binding, dopamine D3 receptor. The settings on record: Table 9; read-out: rD3 Ki.
Text: as §2, §1
As for `CN(C)c1cc(Nc2ccc(Cl)c(Cl)c2)nc(Nc2ccccc2)n1` [Example 60], the Ki worked out at 15.3 µM.

`COc1cccc(Nc2cc(N3CCCCC3)nc(N(C)CCc3c[nH]c4ccccc34)n2)c1` [Example 17]: the Ki was 2.48 µM.

Still in this test, the particulars now being: Table 10; Ki rD3 divided by Ki hGAL3.
For the compound `CN(C)c1cc(Nc2ccc(Cl)c(Cl)c2)nc(Nc2ccccc2)n1` [Example 60], the “selectivity ratio rD3” value was above 100.

Regarding `COc1cccc(Nc2cc(N3CCCCC3)nc(N(C)CCc3c[nH]c4ccccc34)n2)c1` [Example 17], the “selectivity ratio rD3” value amounted to 28.
